Tests used:
Assay in all cases: Test C preemergence
Type in all cases: in vivo
[1] = tested on: ryegrass, Italian (Italian ryegrass, Lolium multiflorum); conditions: for Plant response rating (scale of 0 to 100), Ryegrass, Italian: 0 is no effect, 100 is complete control
How it was run: (§1)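 Assessment: visual, 13–15 d after treatment, 0 (no effect) to 100 (complete control) relative to controls. Treatment: preemergence to seeds in loam-sand soil, or postemergence to 1- to 4-leaf plants in peat-based medium. Formulation: non-phytotoxic solvent mixture with surfactant.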

[2] = tested on: lambsquarters (Chenopodium album); conditions: for Plant response rating (scale of 0 to 100), Lambsquarters: 0 is no effect, 100 is complete control
How it was run: as §1

[3] = tested on: morningglory (Ipomoea coccinea); conditions: for Plant response rating (scale of 0 to 100), Morningglory: 0 is no effect, 100 is complete control
How it was run: as §1

[4] = tested on: crabgrass, large (large crabgrass, Digitaria sanguinalis); conditions: for Plant response rating (scale of 0 to 100), Crabgrass, Large: 0 is no effect, 100 is complete control
How it was run: as §1

[5] = tested on: waterhemp (common waterhemp, Amaranthus rudis); conditions: for Plant response rating (scale of 0 to 100), Waterhemp: 0 is no effect, 100 is complete control
How it was run: as §1

[6] = tested on: ragweed (common ragweed, Ambrosia elatior); conditions: for Plant response rating (scale of 0 to 100), Ragweed: 0 is no effect, 100 is complete control
How it was run: as §1

[7] = tested on: velvetleaf (Abutilon theophrasti); conditions: for Plant response rating (scale of 0 to 100), Velvetleaf: 0 is no effect, 100 is complete control
How it was run: as §1

[8] = tested on: foxtail, giant (giant foxtail, Setaria faberii); conditions: for Plant response rating (scale of 0 to 100), Foxtail, Giant: 0 is no effect, 100 is complete control
How it was run: as §1

[9] = tested on: Galium (catchweed bedstraw, Galium aparine); conditions: for Plant response rating (scale of 0 to 100), Galium: 0 is no effect, 100 is complete control
How it was run: as §1

[10] = tested on: soybean (Glycine max); conditions: for Plant response rating (scale of 0 to 100), Soybean: 0 is no effect, 100 is complete control
How it was run: as §1

[11] = tested on: pigweed (Amaranthus retroflexus); conditions: for Plant response rating (scale of 0 to 100), Pigweed: 0 is no effect, 100 is complete control
How it was run: as §1

[12] = tested on: blackgrass (Alopecurus myosuroides); conditions: for Plant response rating (scale of 0 to 100), Blackgrass: 0 is no effect, 100 is complete control
How it was run: as §1

[13] = tested on: corn (Zea mays); conditions: for Plant response rating (scale of 0 to 100), Corn: 0 is no effect, 100 is complete control
How it was run: as §1

[14] = tested on: barnyardgrass (Echinochloa crus-galli); conditions: for Plant response rating (scale of 0 to 100), Barnyardgrass: 0 is no effect, 100 is complete control
How it was run: as §1

[15] = tested on: wheat (winter wheat, Triticum aestivum); conditions: for Plant response rating (scale of 0 to 100), Wheat: 0 is no effect, 100 is complete control
How it was run: as §1

[16] = tested on: oilseed rape (Brassica napus); conditions: for Plant response rating (scale of 0 to 100), Oilseed Rape: 0 is no effect, 100 is complete control
How it was run: as §1

[17] = 62 g ai/ha, scale 0 to 100, 0 no effect, 100 complete control

CN1CC(c2ccc(C(C)(F)F)cc2)C(C(=O)Nc2cccc(F)c2F)C1=O (stereo not shown) [Compound 690]
55: Plant response rating, Blackgrass [12, 17]
45: Plant response rating, Ryegrass, Italian [1, 17] | Plant response rating, Wheat [15, 17]
20: Plant response rating (scale of 0 to 100), Velvetleaf ([7]; 31 g ai/ha) | Plant response rating (scale of 0 to 100), Corn ([13]; 8 g ai/ha) | Plant response rating (scale of 0 to 100), Corn ([13]; 31 g ai/ha)
98: Plant response rating (scale of 0 to 100), Crabgrass, Large ([4]; 16 g ai/ha) | Plant response rating (scale of 0 to 100), Crabgrass, Large ([4]; 31 g ai/ha) | Plant response rating, Foxtail, Giant [8, 17] | Plant response rating, Galium [9, 17] | Plant response rating, Barnyardgrass [14, 17]
75: Plant response rating (scale of 0 to 100), Lambsquarters ([2]; 31 g ai/ha) | Plant response rating (scale of 0 to 100), Pigweed ([11]; 31 g ai/ha) | Plant response rating (scale of 0 to 100), Oilseed Rape ([16]; 31 g ai/ha)
50: Plant response rating, Velvetleaf [7, 17] | Plant response rating (scale of 0 to 100), Pigweed ([11]; 8 g ai/ha) | Plant response rating (scale of 0 to 100), Blackgrass ([12]; 31 g ai/ha) | Plant response rating (scale of 0 to 100), Oilseed Rape ([16]; 16 g ai/ha)
70: Plant response rating, Corn [13, 17]
85: Plant response rating, Lambsquarters [2, 17] | Plant response rating (scale of 0 to 100), Barnyardgrass ([14]; 8 g ai/ha)
95: Plant response rating (scale of 0 to 100), Crabgrass, Large ([4]; 8 g ai/ha) | Plant response rating, Waterhemp [5, 17] | Plant response rating (scale of 0 to 100), Foxtail, Giant ([8]; 16 g ai/ha) | Plant response rating (scale of 0 to 100), Foxtail, Giant ([8]; 31 g ai/ha) | Plant response rating (scale of 0 to 100), Galium ([9]; 31 g ai/ha) | Plant response rating (scale of 0 to 100), Barnyardgrass ([14]; 16 g ai/ha) | Plant response rating (scale of 0 to 100), Barnyardgrass ([14]; 31 g ai/ha)
10: Plant response rating (scale of 0 to 100), Ryegrass, Italian ([1]; 16 g ai/ha) | Plant response rating (scale of 0 to 100), Ragweed ([6]; 16 g ai/ha) | Plant response rating (scale of 0 to 100), Corn ([13]; 16 g ai/ha)
100: Plant response rating, Crabgrass, Large [4, 17] | Plant response rating (scale of 0 to 100), Galium ([9]; 8 g ai/ha)
0: Plant response rating (scale of 0 to 100), Ryegrass, Italian ([1]; 8 g ai/ha) | Plant response rating (scale of 0 to 100), Morningglory ([3]; 8 g ai/ha) | Plant response rating (scale of 0 to 100), Morningglory ([3]; 16 g ai/ha) | Plant response rating (scale of 0 to 100), Morningglory ([3]; 31 g ai/ha) | Plant response rating, Morningglory [3, 17] | Plant response rating (scale of 0 to 100), Ragweed ([6]; 8 g ai/ha) | Plant response rating (scale of 0 to 100), Velvetleaf ([7]; 8 g ai/ha) | Plant response rating (scale of 0 to 100), Velvetleaf ([7]; 16 g ai/ha) | Plant response rating (scale of 0 to 100), Soybean ([10]; 8 g ai/ha) | Plant response rating (scale of 0 to 100), Soybean ([10]; 16 g ai/ha) | Plant response rating (scale of 0 to 100), Soybean ([10]; 31 g ai/ha) | Plant response rating, Soybean [10, 17] | Plant response rating (scale of 0 to 100), Blackgrass ([12]; 8 g ai/ha) | Plant response rating (scale of 0 to 100), Blackgrass ([12]; 16 g ai/ha) | Plant response rating (scale of 0 to 100), Wheat ([15]; 8 g ai/ha) | Plant response rating (scale of 0 to 100), Oilseed Rape ([16]; 8 g ai/ha)
65: Plant response rating (scale of 0 to 100), Lambsquarters ([2]; 8 g ai/ha) | Plant response rating (scale of 0 to 100), Lambsquarters ([2]; 16 g ai/ha) | Plant response rating (scale of 0 to 100), Waterhemp ([5]; 8 g ai/ha)
25: Plant response rating (scale of 0 to 100), Ragweed ([6]; 31 g ai/ha)
40: Plant response rating (scale of 0 to 100), Ryegrass, Italian ([1]; 31 g ai/ha) | Plant response rating (scale of 0 to 100), Wheat ([15]; 31 g ai/ha)
5: Plant response rating (scale of 0 to 100), Wheat ([15]; 16 g ai/ha)
60: Plant response rating (scale of 0 to 100), Pigweed ([11]; 16 g ai/ha)
80: Plant response rating (scale of 0 to 100), Waterhemp ([5]; 16 g ai/ha) | Plant response rating, Ragweed [6, 17] | Plant response rating, Oilseed Rape [16, 17]
90: Plant response rating (scale of 0 to 100), Waterhemp ([5]; 31 g ai/ha) | Plant response rating (scale of 0 to 100), Foxtail, Giant ([8]; 8 g ai/ha) | Plant response rating (scale of 0 to 100), Galium ([9]; 16 g ai/ha) | Plant response rating, Pigweed [11, 17]

Source: patent publication US12077503B2, “Substituted cyclic amides and their use as herbicides” (FMC CORPORATION, priority 2015, dated 2024)
